Experimental data taken from EP0908457B1, “3-(1,2-benzisothiazol- and isoxazol-5-Y1)-2,4(1H,3H)-pyrimidinedione or thione and 3-(1,2-benzisothiazol- and isoxazol-5-y1)-4(3H)-pyrimidinone or thione herbicidal agents” (BASF AKTIENGESELLSCHAFT, priority 1997, dated 1999).

Legend:
[1] = test system: Echinochloa oryzoides (Ard.) Fritsch.; assay: Preemergence weed control under flooded paddy conditions, ECHORC (Watergrass (Calif.)); type: in vivo; settings: preemergence weeds, flooded paddy; for ECHORC: herbicidal effect rating 0-9, three to four weeks after treatment; for herbicidal effect rating, ECHORC: rated three to four weeks after treatment; for herbicidal effect rating, ECHORC: meaning of each grade not given here
[2] = test system: Cyperus serotinus, Rottb.; assay: Preemergence weed control under flooded paddy conditions, CYPSE (Flatsedge); type: in vivo; settings: preemergence weeds; for CYPSE: herbicidal effect rating 0-9, three to four weeks after treatment; for herbicidal effect rating, CYPSE: rated three to four weeks after treatment; for herbicidal effect rating, CYPSE: meaning of each grade not given here
Cyperus iria = assay: Preemergence weed control under flooded paddy conditions, CYPIR (Rice Flatsedge); type: in vivo; settings: preemergence weeds, flooded paddy; for CYPIR: herbicidal effect rating 0-9, three to four weeks after treatment; for herbicidal effect rating, CYPIR: rated three to four weeks after treatment; for herbicidal effect rating, CYPIR: meaning of each grade not given here
[3] = test system: Oryza sativa, (L.) Tebonnet; assay: Rice tolerance to post-transplant applications under flooded paddy conditions (Example 187), ORYSAT (Rice, Tebonnet); settings: for ORYSAT: herbicidal effect rating 0-9, three to four weeks after treatment; for herbicidal effect rating ORYSAT: rated three to four weeks after treatment
Sagittaria pygmaea, L. = assay: Preemergence weed control under flooded paddy conditions, SAGPY (Arrowhead (Pygmaea)); type: in vivo; settings: preemergence weeds, flooded paddy; for SAGPY: herbicidal effect rating 0-9, three to four weeks after treatment; for herbicidal effect rating, SAGPY: rated three to four weeks after treatment; for herbicidal effect rating, SAGPY: meaning of each grade not given here

SMILES | herbicidal effect rating, ECHORC ([1]; Rate 0.0320 kg/ha) | herbicidal effect rating, ECHORC ([1]; Rate 0.0620 kg/ha) | herbicidal effect rating, ECHORC ([1]; Rate 0.1250 kg/ha) | herbicidal effect rating, ECHORC ([1]; Rate 0.2500 kg/ha) | herbicidal effect rating, CYPSE ([2]; Rate 0.0320 kg/ha) | herbicidal effect rating, CYPSE ([2]; Rate 0.0620 kg/ha) | herbicidal effect rating, CYPSE ([2]; Rate 0.1250 kg/ha) | herbicidal effect rating, CYPSE ([2]; Rate 0.2500 kg/ha) | herbicidal effect rating, CYPIR (Cyperus iria; Rate 0.0320 kg/ha) | herbicidal effect rating, CYPIR (Cyperus iria; Rate 0.0620 kg/ha) | herbicidal effect rating, CYPIR (Cyperus iria; Rate 0.1250 kg/ha) | herbicidal effect rating, CYPIR (Cyperus iria; Rate 0.2500 kg/ha) | herbicidal effect rating ORYSAT ([3]; Rate 0.0320 kg/ha) | herbicidal effect rating ORYSAT ([3]; Rate 0.0620 kg/ha) | herbicidal effect rating ORYSAT ([3]; Rate 0.1250 kg/ha) | herbicidal effect rating ORYSAT ([3]; Rate 0.2500 kg/ha) | herbicidal effect rating, SAGPY (Sagittaria pygmaea, L.; Rate 0.0320 kg/ha) | herbicidal effect rating, SAGPY (Sagittaria pygmaea, L.; Rate 0.0620 kg/ha) | herbicidal effect rating, SAGPY (Sagittaria pygmaea, L.; Rate 0.1250 kg/ha) | herbicidal effect rating, SAGPY (Sagittaria pygmaea, L.; Rate 0.2500 kg/ha) | also measured
CC(c1ccccc1)S(=O)(=O)NC(=O)c1nsc2ccc(-n3c(=O)cc(C(F)(F)F)n(C)c3=O)cc12 (stereo not drawn) [Example 427, 1,2-Benzisothiazole-3-carboxamide, 5-[3,6-dihydro-3-methyl-2,6-dioxo-4-(trifluoromethyl)-1(2H)-pyrimidinyl]-N-[(alpha-methylbenzyl)-sulfonyl]-] | – | – | – | – | – | – | – | – | – | – | – | – | – | – | – | – | – | – | – | – | ECHORC ([1]; 0.0320 kg/ha): 7.0; ECHORC ([1]; 0.0620 kg/ha): 7.0; ECHORC ([1]; 0.1250 kg/ha): 9.0; ECHORC ([1]; 0.2500 kg/ha): 9.0; CYPSE ([2]; 0.0320 kg/ha): 0.0; CYPSE ([2]; 0.0620 kg/ha): 0.0; CYPSE ([2]; 0.2500 kg/ha): 4.0; CYPIR (Cyperus iria; 0.0320 kg/ha): 7.0; CYPIR (Cyperus iria; 0.0620 kg/ha): 7.0; CYPIR (Cyperus iria; 0.1250 kg/ha): 7.0; CYPIR (Cyperus iria; 0.2500 kg/ha): 9.0; ORYSAT ([3]; 0.0320 kg/ha): 0.0; ORYSAT ([3]; 0.0620 kg/ha): 0.0; ORYSAT ([3]; 0.1250 kg/ha): 1.0; ORYSAT ([3]; 0.2500 kg/ha): 3.0; SAGPY (Sagittaria pygmaea, L.; 0.0320 kg/ha): 4.0; SAGPY (Sagittaria pygmaea, L.; 0.0620 kg/ha): 5.0; SAGPY (Sagittaria pygmaea, L.; 0.1250 kg/ha): 6.0; SAGPY (Sagittaria pygmaea, L.; 0.2500 kg/ha): 9.0
COC(=O)COc1ccc(OC)cc1-c1nsc2ccc(-n3c(=O)cc(C(F)(F)F)n(C)c3=O)cc12 [Example 347, Acetic acid, {2-{5-[3,6-dihydro-3-methyl-2,6-dioxo-4-(trifluoromethyl)-1(2H)-pyrimidinyl]-1,2-benzisothiazol-3-yl}-4-methoxyphenoxy}-, methyl ester] | 7.0 | 9.0 | 9.0 | 9.0 | 0.0 | 0.0 | 4.0 | 7.0 | 7.0 | 9.0 | 9.0 | 9.0 | 3.0 | 6.0 | 7.0 | 9.0 | 2.0 | 3.0 | 4.0 | 5.0 | –
CC(Oc1ccccc1-c1nsc2ccc(-n3c(=O)cc(C(F)(F)F)n(C)c3=O)cc12)C(=O)NS(C)(=O)=O (centres unmarked) [Example 335, Propionamide, 2-{o-{5-[3,6-dihydro-3-methyl-2,6-dioxo-4-(trifluoromethyl)-1(2H)-pyrimidinyl]-1,2-benzisothiazol-3-yl}phenoxy}-N-(methylsulfonyl)-] | 6.0 | 7.0 | 7.0 | 9.0 | 0.0 | 0.0 | 6.0 | 6.0 | 0.0 | 0.0 | 2.0 | 2.0 | 3.0 | 4.0 | 5.0 | 7.0 | 0.0 | 0.0 | 4.0 | 4.0 | –
Cn1c(C(F)(F)F)cc(=O)n(-c2ccc3snc(C(=O)NS(=O)(=O)CCl)c3c2)c1=O [Example 334, 1,2-Benzisothiazole-3-carboxamide, N-[(chloromethyl)sulfonyl]-5-[3,6-dihydro-3-methyl-2,6-dioxo-4-(trifluoromethyl)-1(2H)-pyrimidinyl]-] | 0.0 | 0.0 | 0.0 | 3.0 | 0.0 | 0.0 | 2.0 | 2.0 | 3.0 | 5.0 | 6.0 | 6.0 | 0.0 | 0.0 | 3.0 | 3.0 | 0.0 | 0.0 | 4.0 | 4.0 | –
Cn1c(C(F)(F)F)cc(=O)n(-c2ccc3snc(C(C)(Br)Br)c3c2)c1=O [Example 340, 2,4(1H,3H)-Pyrimidinedione, 3-[3-(1,1-dibromoethyl)-1,2-benzisothiazol-5-yl]-1-methyl-6-(trifluoromethyl)-] | 5.0 | 6.0 | 9.0 | 9.0 | 3.0 | 3.0 | 6.0 | 7.0 | 2.0 | 5.0 | 7.0 | 9.0 | 5.0 | 6.0 | 7.0 | 9.0 | 4.0 | 4.0 | 5.0 | 7.0 | –
CC(Br)c1nsc2ccc(-n3c(=O)cc(C(F)(F)F)n(C)c3=O)cc12 (centres unmarked) [Example 339, 2,4(1H,3H)-Pyrimidinedione, 3-[3-(1-bromoethyl)-1,2-benzisothiazol-5-yl]-1-methyl-6-(trifluoromethyl)-] | 0.0 | 0.0 | 4.0 | 6.0 | 0.0 | 0.0 | 6.0 | 9.0 | 4.0 | 4.0 | 7.0 | 7.0 | 5.0 | 7.0 | 9.0 | 9.0 | 5.0 | 5.0 | 5.0 | 9.0 | –
